This is an account of results in US4267176A, “Amino or acylamino-substituted pyrimidinyl cephalosporanic acid derivatives and pharmaceutical compositions thereof” (Fujisawa Pharmaceutical Co., Ltd., priority 1977, dated 1981).

In test [1] the test system is Pseudomonas aeruginosa NCTC-10490. As to the kind of experiment: In vitro antibacterial activity, two-fold agar-plate dilution method (MIC), Pseudomonas aeruginosa. It is filed as cell-based. Particulars: NCTC10490, heart infusion agar, 37° C. for 20 hours, approximately 10^6 cells per ml, read-out: MIC (minimal inhibitory concentration). As to the method: (§1) In vitro antibacterial activity was determined by the two-fold agar-plate dilution method as described below. One loopful of an overnight culture of each test strain in Trypticase-soy broth (approximately 10^6 […] cells per ml.) was streaked on heart infusion agar (HI-agar) containing graded concentrations of antibiotics, and the minimal inhibitory concentration (MIC) was expressed in […] of μg/ml after incubation at 37° C. for 20 hours.

Test [2] deals with Proteus vulgaris IAM 1025. As to the kind of experiment: In vitro antibacterial activity, two-fold agar-plate dilution method (MIC), Proteus vulgaris. It is filed as cell-based. Particulars: IAM1025, heart infusion agar, 37° C. for 20 hours, approximately 10^6 cells per ml, read-out: MIC (minimal inhibitory concentration). Here is the method: as §1

In brackets after ≈: the same amount, converted by molar mass.

Take `CCO/N=C(\C(=O)NC1C(=O)N2C(C(=O)O)=C(CSc3nncs3)CSC12)c1nccc(N)n1` (stereo not drawn) [compound 1, 7-[2-(4-Aminopyrimidin-2-yl)-2-ethoxyiminoacetamido]-3-(1,3,4-thiadiazol-2-ylthiomethyl)-3-cephem-4-carboxylic acid (syn isomer)]: the MIC in test [1] was below 1.56 µg/mL; in test [2] it was below 0.025 µg/mL.
With `C=CCn1nnnc1SCC1=C(C(=O)O)N2C(=O)C(NC(=O)/C(=N\OC)c3nccc(N)n3)C2SC1` (stereo not drawn) [compound 2, 7-[2-(4-Aminopyrimidin-2-yl)-2-methoxyiminoacetamido]-3-[(1-allyl-1H-tetrazol-5-yl)thiomethyl]-3-cephem-4-carboxylic acid (syn isomer)], the results for the MIC in test [1] and in test [2] were 6.25 µg/mL (≈ 11.7 µM) and below 0.025 µg/mL, respectively.
For `C=CCO/N=C(\C(=O)NC1C(=O)N2C(C(=O)O)=C(CSc3nncs3)CSC12)c1nccc(N)n1` (stereo not drawn) [compound 3, 7-[2-Allyloxyimino-2-(4-aminopyrimidin-2-yl)acetamido]-3-(1,3,4-thiadiazol-2-ylthiomethyl)-3-cephem-4-carboxylic acid (syn isomer)], in that order: below 1.56 µg/mL and 0.05 µg/mL (≈ 0.0935 µM).
As for `CCCO/N=C(\C(=O)NC1C(=O)N2C(C(=O)O)=C(CSc3nncs3)CSC12)c1nccc(N)n1` (stereo not drawn) [compound 4, 7-[2-(4-Aminopyrimidin-2-yl)-2-propoxyiminoacetamido]-3-(1,3,4-thiadiazol-2-ylthiomethyl)-3-cephem-4-carboxylic acid (syn isomer)], the figures for the MIC in test [1] and in test [2] were below 1.56 µg/mL and below 0.025 µg/mL, respectively.
For `Nc1cccc(/C(=N/OCC(F)(F)F)C(=O)NC2C(=O)N3C(C(=O)O)=C(CSc4nnnn4CC(=O)O)CSC23)n1` (stereo not drawn) [compound 5, 7-[2-(6-Aminopyridin-2-yl)-2-(2,2,2-trifluoroethoxyimino)acetamido]-3-[(1-carboxymethyl-1H-tetrazol-5-yl)thiomethyl]-3-cephem-4-carboxylic acid (syn isomer)], in that order: below 1.56 µg/mL and 0.025 µg/mL (≈ 0.0405 µM).
`CO/N=C(\C(=O)NC1C(=O)N2C(C(=O)O)=C(CSc3nnnn3C)CSC12)c1cccc(N)n1` (stereo not drawn) [compound 6, 7-[2-(6-aminopyridin-2-yl)-2-methoxyiminoacetamido]-3-(1-methyl-1H-tetrazol-5-yl)thiomethyl-3-cephem-4-carboxylic acid (syn isomer)]: the MIC is at most 1.56 µg/mL in test [1] and at most 0.025 µg/mL in test [2].
In the same order, the values of `CON=C(C(=O)NC1C(=O)N2C(C(=O)O)=CCS[C@H]12)c1cccc(N)n1` (stereo partly shown) [compound 7, 7-[2-(6-aminopyridin-2-yl)-2-methoxyiminoacetamido]-3-cephem-4-carboxylic acid] are 6.25 µg/mL (≈ 16.6 µM) and at most 0.025 µg/mL.
Turning to `CO/N=C(\C(=O)NC1C(=O)N2C(C(=O)O)=C(COC(N)=O)CSC12)c1cccc(N)n1` (stereo not drawn) [compound 8, 7-[2-(6-aminopyridin-2-yl)-2-methoxyiminoacetamido]-3-carbamoyloxymethyl-3-cephem-4-carboxylic acid (syn isomer)], the MIC was determined as 3.13 µg/mL (≈ 6.95 µM) in test [1] and 0.05 µg/mL (≈ 0.111 µM) in test [2].
For `CO/N=C(\C(=O)NC1C(=O)N2C(C(=O)O)=C(COC(C)=O)CSC12)c1cccc(N)n1` (stereo not drawn) [compound 9, 7-[2-(6-aminopyridin-2-yl)-2-methoxyiminoacetamido]cephalosporanic acid (syn isomer)], in that order: at most 1.56 µg/mL and at most 0.025 µg/mL.
For `CON=C(C(=O)NC1C(=O)N2C(C(=O)O)=C(CSc3nnnn3C)CS[C@H]12)c1ccnc(N)n1` (stereo partly shown) [compound 10, 7-[2-(2-aminopyrimidin-4-yl)-2-methoxyiminoacetamido]-3-(1-methyl-1H-tetrazol-5-yl)thiomethyl-3-cephem-4-carboxylic acid], in that order: 6.25 µg/mL (≈ 12.3 µM) and 0.2 µg/mL (≈ 0.395 µM).
In the same order, the values of `CO/N=C(\C(=O)NC1C(=O)N2C(C(=O)O)=C(CSc3nnnn3C)CSC12)c1nccc(N)n1` (stereo not drawn) [compound 11, 7-[2-(4-aminopyrimidin-2-yl)-2-methoxyiminoacetamido]-3-(1-methyl-1H-tetrazol-5-ylthiomethyl)-3-cephem-4-carboxylic acid (syn isomer)] are below 1.56 µg/mL and at most 0.025 µg/mL.
As to `C=CCO/N=C(\C(=O)NC1C(=O)N2C(C(=O)O)=C(CSc3nnnn3C)CSC12)c1cccc(N)n1` (stereo not drawn) [compound 12, 7-[2-allyloxyimino-2-(6-aminopyridin-2-yl)acetamido]-3-(1-methyl-1H-tetrazol-5-ylthiomethyl)-3-cephem-4-carboxylic acid (syn isomer)], the MIC in test [1] was at most 1.56 µg/mL; in test [2], 0.05 µg/mL (≈ 0.0941 µM).
In the case of `C#CCO/N=C(\C(=O)NC1C(=O)N2C(C(=O)O)=C(CSc3nnnn3C)CSC12)c1cccc(N)n1` (stereo not drawn) [compound 13, 7-[2-(6-aminopyridin-2-yl)-2-propargyloxyiminoacetamido]-3-(1-methyl-1H-tetrazol-5-ylthiomethyl)-3-cephem-4-carboxylic acid (syn isomer)], the MIC in test [1] was at most 1.56 µg/mL; in test [2], 0.05 µg/mL (≈ 0.0944 µM).
With `CCO/N=C(\C(=O)NC1C(=O)N2C(C(=O)O)=CC(C)SC12)c1cccc(N)n1` (stereo not drawn) [compound 14, 7-[2-(6-aminopyridin-2-yl)-2-ethoxyiminoacetamido]-2-methyl-3-cephem-4-carboxylic acid (syn isomer)], the MIC was below 1.56 µg/mL in test [1] and 0.05 µg/mL (≈ 0.123 µM) in test [2].
